What was measured:
[1] = Bioavailability study of epithiazide in healthy volunteers; format: in vivo
[2] = Hydrolysis of epithiazide to hydroxyhydrothiazide in aqueous phosphate buffer; format: physicochemical; details: 0.067 m phosphate buffer, pH=7, 37°C, 0.067 M aqueous phosphate buffer, read-out: epithiazide cleaved into hydroxyhydrothiazide
Procedure: Figure 1: Hydrolysis of epithiazide to hydroxyhydrothiazide under various temperatures and pH in a 0.067 M phosphate buffer.
Epithiazide was contacted with an aqueous phosphate buffer of 0.067 M at two different temperatures (RT and 37°C), at different pHs, ranging from 5,2 to 13.

[3] = Intravenous administration to dogs: elimination and urine production; format: in vivo; details: 0.08-0.4 mg/kg
Procedure: The pharmacotherapeutic activity of the hydroxyhydrothiazides has been evaluated. The natriuretic an/or diuretic activity has been determined by testing on animals and healthy volunteers.
The elimination from the body was monitored for 48 hours. […] The diuretic effect was monitored by measuring the urine production.

[4] = pKa of isolated hydroxyhydrothiazide; format: physicochemical; details: isolated and purified product
Procedure: The hydroxyhydrothiazide was synthesised by the hydrolysis of epithiazide. Conversion to hydroxyhydrothiazide was completed in 72 hours at 37 °C in a 0.067 M phosphate buffer.

[5] = after administration of a suitable dose of epithiazide

Structure (SMILES)	detection in the plasma [1, 5]	detection in the urine [1, 5]	degraded at 10 h [2] [%]	biological half-life (relative to epithiazide) ([1]; compound found after administration of epithiazide)	distribution of the compound throughout the body [3]	diuretic effect (urine production) [3]	half-life compared with conventional thiazide-based diuretics such as epithiazide and hydrochlorothiazide ([3]; elimination monitored for 48 hours)	pKa [4]
NS(=O)(=O)c1cc2c(cc1Cl)NC(CSCC(F)(F)F)NS2(=O)=O (centres unmarked) [epithiazide]	no epithiazide could be detected	detected	> 80	–	–	–	–	–
NS(=O)(=O)c1cc2c(cc1Cl)NC(O)NS2(=O)=O (centres unmarked) [hydroxyhydrothiazide]	–	–	–	longer biological half-life	rapid distribution	instant diuretic effect	about twice as long	9.5

Source: patent publication EP1132382A1, “3-Oxy-7-sulfamyl-3,4-dihydro-1,2,4-benzothiadazine-1,1-dioxide derivatives having diuretic and/or natriuretic activity” (Farma Invent B.V., priority 2000, dated 2001)
